Laboratory results reported in patent US20130143297A1, “STABILIZED LIQUID TENSIDE P[…]” (Henkel AG & Co. KGaA, priority 2010, published 2013).

Tested on: variant F49 of the protease from Bacillus lentus
Experiment: Residual proteolytic activity after storage in liquid washing agent (suc-AAPF-pNA)
Format: biochemical
Settings: 13 days at 30° C., initial activity = 100%
Description: A liquid washing agent of the following composition served as a baseline washing agent formulation (all indications in percent by weight): 0.3 to 0.5% xanthan, 0.2 to 0.4% antifoaming agent, 6 to 7% glycerol, 0.3 to 0.5% ethanol, 4 to 7% FAEOS (fatty alcohol ether sulfate), 24 to 28% nonionic surfactants, 1 to 2% sodium citrate (dihydrate), 2 to 4% soda, 14 to 16% coconut fatty acids, 0.5% HEDP (1-hydroxyethane-(1,1-diphosphonic acid)), 0 to 0.4% PVP (polyvinylpyrrolidone), 0 to 0.05% optical brightener, 0 to 0.001% dye, remainder demineralized water.
The aminophthalic acid 4-aminophthalic acid (Alfa Aesar) was incorporated into this formulation as the component stabilizing the hydrolytic enzyme, as indicated below (see Table 1, indications in this regard in wt %). Comparison formulations that contained either boric acid as an enzyme stabilizer, or no enzyme stabilizer, served as controls. The protease used was variant F49 of the protease from Bacillus lentus in accordance with WO 95/23221 (quantity used: 1 wt % active substance).
After storage, the respective residual proteolytic activity was determined by way of the release of the para-nitroaniline (pNA) chromophore from the suc-L-Ala-L-Ala-L-Pro-L-Phe-p-nitroanilide substrate (suc-AAPF-pNA). The protease cleaves the substrate and releases pNA. The release of pNA causes an increase in extinction at 410 nm, the time course of which is an indication of enzymatic activity (see Del Mar et al., 1979). Measurement occurred at a temperature of 25° C., at pH 8.6 and at a wavelength of 410 nm. The measurement time was 5 min, with a measurement interval from 20 s to 60 s. The proteolytic activity values obtained are indicated in Table 1 below, based on an initial activity of 100% when storage began.

[1] = 1.0 wt % stabilizer in baseline liquid washing agent

SMILES | residual proteolytic activity after storage (0.1 wt % stabilizer in baseline liquid washing agent) | residual proteolytic activity after storage (0.5 wt % stabilizer in baseline liquid washing agent) | residual proteolytic activity after storage [1] | residual proteolytic activity after storage (2.0 wt % stabilizer in baseline liquid washing agent)
Nc1ccc(C(=O)O)c(C(=O)O)c1 [4-aminophthalic acid] | 28.3% | 33.3% | 40.8% | 50.0%
OB(O)O [boric acid, reference compound] | – | – | 74.9% | –
